From patent US20180127360A1 (Elé Corporation, priority 2016, published 2018)

Assay: Surface tension, du Nouy ring interfacial tensiometer
Assay type: physicochemical
Settings: 25° C.
Procedure: Surface tension measurements were taken on solutions made from the mixture prepared in Example 1(C) using a du Nouy ring interfacial tensiometer, equipped with a six-cm circumference platinum-iridium ring. A series of test solutions at different concentrations were prepared and their surface tension measured at 25° C. For each test concentration, the ring is slowly drawn out of the liquid. The surface tension is equal to the force required to draw the ring completely out of the liquid, divided by twice the circumference of the ring. […] The surface tension at the CMC was 29.6 dyne/cm.

With `CCCCCCCCCCCCNCCC(=O)O.N=C(N)NCCCC(N)C(=O)O` [Example 1(C)] the “surface tension at the CMC” value was 29.6 dyne/cm and the “Critical Micelle Concentration (CMC)” value (series of test solutions at different concentrations) was 2.46 millimoles per liter.
